The values that follow come from US5466716A, “Liposomal trimethylsphingosine” (The Biomembrane Institute, priority 1994, dated 1995).

The subject of experiment [1] is 40 kD platelet protein. The experiment can be described thus: thrombin-induced phosphorylation of 40 kD platelet protein. Conditions: thrombin stimulation, FIG. 9. Format: cell-based, human. The method, then: FIG. 9 depicts the inhibition of γ-thrombin-induced phosphorylation of 40 kD protein of human platelets by sphingosine and TMS. Human platelets (3×10^5 /μl) were prelabeled with ^32 p-phosphoric acid (0.2 mCi/ml) in Tyrode's buffer containing 22 mM trisodium citrate, 1 mg/ml glucose and 3.5 mg/ml bovine serum albumin (pH 6.5) for 75 minutes at 37° C. After centrifugation (600× g, 10 minutes), the platelets were resuspended in Tyrode's buffer (pH 7.2), aliquoted in plastic tubes and pre-incubated at 37° C. for 5 minutes with various concentrations of sphingosine and its derivatives (added as 50% ethanol solutions with a final ethanol concentration of 0.5%). Platelets then were stimulated with thrombin […]. The reactions were stopped after 30 seconds by the addition of 5× sample buffer, the samples were boiled and loaded onto 10% SDS-polyacrylamide gels. The proteins were separated electrophotectically. Lane 1-control without stimulation by thrombin; Lane 2-stimulation by 1 μU/ml of γ-thrombin; Lane 3-stimulated by thrombin but added with 1 μM TMS; Lane 4-stimulated by thrombin but added with 10 μM TMS; Lane 5-stimulated by thrombin but added with 20 μM TMS; Lane 6-stimulated by thrombin but added with 30 μM TMS; Lane 7-stimulated by thrombin but added with 20 μM sphingosine; Lane 8-stimulated by thrombin but included addition of 20 μM N,N-dimethylsphingosine.

The subject of experiment [2] is erythrocytes. The experiment can be described thus: erythrocyte metabolic activity under blood storage conditions. Format: cell-based. Conditions: in vitro, normal blood storage conditions. The text has this:
Similar results can be expected for leukocytes and platelets.

Experiment [3] concerns BL6 melanoma cells. The experiment can be described thus: melanoma BL6 cell proliferation (thymidine incorporation). Format: cell-based. Conditions: BL6, FIG. 5A. The text has this: FIGS. 5A and 5B depict the effect of N,N,N-trimethylsphingosine (open circles), N,N-dimethylsphingosine (solid circles) and sphingosine (open squares) on two melanoma cell lines, BL6, a highly malignant cell line (in FIG. 5A) and F1, a cell line of low malignancy, (in FIG. 5B). Cell proliferation was evidenced by tritiated thymidine incorporation into DNA.
(§1) An in vitro assay relying on tritiated thymidine incorporation can be used to ascertain the effect of various compounds on cell proliferation. Briefly, tumor cells are seeded in flat bottom 96 well plates (Corning, N.Y.) at a concentration of 2×10^4 cells per well. The cells are cultured for 2 days in DMEM containing various concentrations of sphingoid, which is added as a PBS solution. The medium then is supplemented with tritiated thymidine at a concentration of 0.5 μCi per well. Following a six hour incubation the cells are collected using the PHD Cell Harvester (Cambridge Technology, Cambridge, Mass.) and amounts of incorporated radioactivity are determined after adding a suitable cell lysing agent and scintillation cocktail, such as ScintiVerse BD (Fisher Scientific, Fairlawn, Calif.) which performs both functions.
Certain cancer cells show a higher metastatic potential and invasive capability than others. For example the BL6 and F10 melanoma cell lines are highly metastatic and invasive. […]
(Dividing cells build labelled thymidine or BrdU into new DNA.)

In experiment [4] the test system is mouse CTLL-2 cells. The experiment can be described thus: CTLL-2 cell proliferation (thymidine incorporation). Format: cell-based. Conditions: FIG. 10. The method, then: FIG. 10 depicts the effect of sphingosine derivatives on mouse T-cell line CTLL. Each point is the mean of three replicates. In the figure DMS represents N,N-dimethylsphingosine and TMS represents N,N,N-trimethylsphingosine.
For example, mouse CTLL-2 cells (ATCC No. TIB 214), a T lymphocyte cell line, were plated at 1.5×10^4 cells per well and exposed to test substances. Cell proliferation was monitored by thymidine incorporation.

The test system of experiment [5] is MKN-74 cells. The experiment can be described thus: comparative effect of reagents on MKN-74 tumor cell growth/differentiation. Format: cell-based, human. Conditions: MKN-74, FIG. 3, compared with DMS, SPN, cAMP derivatives, HMBA.
Excerpt: FIG. 3 depicts the comparative effect of various reagents on tumor cell differentiation. MKN-74 cells were exposed to N,N,N-trimethylsphingosine (open squares), N,N-dimethylsphingosine (open circles), 8-chloro-cyclic AMP (open triangles), dibutyryl cyclic AMP (solid triangles), sphingosine (solid circles) and hexamethylenebisacetamide (solid squares).
as §1
MKN-74 cells were exposed to cAMP and derivatives thereof and to HMBA, which are known to inhibit tumor cell growth by differentiation induction.

The subject of experiment [6] is human colonic cancer cell line COLO-205. The experiment can be described thus: tritiated thymidine incorporation, tumor cell growth (COLO-205). Format: cell-based. Particulars: COLO-205, FIG. 2A.
Excerpt: (§2) FIGS. 2A-2C show the effect of sphingosine derivatives on human tumor cell growth. In FIG. 2A the growth of human colonic cancer cell line COLO-205 was monitored. In FIG. 2B the growth of human lung cancer cell line LU-65 was monitored. In FIG. 2C the growth of human gastric cancer cell line MKN-74 was monitored. In each Figure the ordinate represents the percent inhibition of tritiated thymidine incorporation, the solid circles represent sphingosine, the open circles represent N,N-dimethylsphingosine and the triangles represent N,N,N-trimethylsphingosine.
as §1, with “functions. […]” for “functions.”

Experiment [7] deals with human gastric cancer cell line MKN-74. The experiment can be described thus: tritiated thymidine incorporation, tumor cell growth (MKN-74). Conditions: MKN-74, FIG. 2C. Format: cell-based.
Excerpt: as §2
as §1, with “functions. […]” for “functions.”

The test system of experiment [8] is neutrophils. The experiment can be described thus: neutrophil O2 consumption (Clark-type electrode). Format: cell-based, human. The method, then:
FIG. 14 depicts the effect of various reagents on neutrophil O2 consumption. The Clark-type electrode and oxygen monitor were calibrated using air-saturated water according to the manufacturer's recommendations (Y.S.I. Inc., Yellow Springs, Ohio. A reading of 100% was considered to be equal to the concentration of oxygen in air-saturated water.
O2 consumption was measured using a Clark-type electrode with a Y.S.I. model P300 biological oxygen monitor and a micro oxygen chamber assembly (Y.S.I. Inc., Yellow Springs, Ohio). Assays were performed at 37° C. with ≈6×10^6 neutrophils per ml in a total volume of 600 μl. The cell suspensions, in Eppendorf test tubes, were warmed at 37° C. for several minutes before being applied to the microchamber. Effectors were injected carefully using a Hamilton syringe and stirred well with a microstirrer at a speed of ≈240 rpm. The cell suspensions were pre-incubated with effectors for 5 min prior to addition of PMA to a final concentration of 1.0 μM.

“Also recorded” adds a separate entry of the source.

As to `CCCCCCCCCCCCC/C=C/[C@@H](O)[C@H](CO)[N+](C)(C)C` [TMS, N,N,N-trimethylsphingosine], in experiment [1], the “inhibition of phosphorylation of the 40 kD platelet protein” value is on record as “inhibits phosphorylation of the 40 kD platelet protein”. Also, in experiment [2], the erythrocyte metabolic activity entry was “retards erythrocyte metabolic activity”. Further, the “inhibition of cell growth” value in experiment [3] was “more effective than DMS and sphingosine; also recorded: BL6 cells were more sensitive to TMS treatment”. Further, the “suppression of CTLL-2 cell growth” value in experiment [4] is recorded as “effective in suppressing CTLL-2 cell growth”. Moreover, the “inhibition of tumor cell growth” value in experiment [5] is reported as “most effective inhibitor of tumor cell growth”; in experiment [6] it was “superior to sphingosine; also recorded: showed an advantage over DMS”; in experiment [7] it was “superior to sphingosine; also recorded: showed an advantage over DMS”. In experiment [8] (Example 6), the “neutrophil O2 consumption” value was “noted effect”. The “inhibition of PMA-dependent enhancement of O2 consumption” value in experiment [8] (PMA, FIG. 14) is on record as “inhibited strongly”.
